The target in the experiment is T1, T1R umami taste receptor (Homo sapiens, UniProt Q7RTX0+Q7RTX1).
T1 sequence (Q7RTX1 21-841): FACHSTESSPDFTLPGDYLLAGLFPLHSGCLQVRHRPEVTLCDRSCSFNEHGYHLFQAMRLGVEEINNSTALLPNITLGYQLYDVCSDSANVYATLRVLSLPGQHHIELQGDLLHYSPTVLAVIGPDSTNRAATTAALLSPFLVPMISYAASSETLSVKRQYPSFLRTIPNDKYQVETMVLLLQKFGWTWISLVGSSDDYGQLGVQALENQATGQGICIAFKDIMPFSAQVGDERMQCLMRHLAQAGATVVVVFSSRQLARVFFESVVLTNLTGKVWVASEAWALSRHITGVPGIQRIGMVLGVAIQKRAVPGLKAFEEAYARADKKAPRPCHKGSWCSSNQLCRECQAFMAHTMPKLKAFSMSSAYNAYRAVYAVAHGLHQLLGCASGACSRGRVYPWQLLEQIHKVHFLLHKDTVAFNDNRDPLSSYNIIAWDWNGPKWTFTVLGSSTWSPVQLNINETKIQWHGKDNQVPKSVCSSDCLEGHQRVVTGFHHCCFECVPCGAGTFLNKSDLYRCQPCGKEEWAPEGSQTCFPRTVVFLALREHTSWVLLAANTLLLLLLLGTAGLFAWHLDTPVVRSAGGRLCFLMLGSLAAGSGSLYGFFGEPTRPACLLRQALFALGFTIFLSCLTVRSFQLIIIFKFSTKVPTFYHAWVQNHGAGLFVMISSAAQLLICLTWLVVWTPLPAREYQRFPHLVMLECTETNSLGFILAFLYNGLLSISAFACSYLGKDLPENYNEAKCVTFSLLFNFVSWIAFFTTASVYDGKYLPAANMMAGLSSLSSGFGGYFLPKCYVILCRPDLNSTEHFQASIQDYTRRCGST
T1 sequence (Q7RTX0 21-852): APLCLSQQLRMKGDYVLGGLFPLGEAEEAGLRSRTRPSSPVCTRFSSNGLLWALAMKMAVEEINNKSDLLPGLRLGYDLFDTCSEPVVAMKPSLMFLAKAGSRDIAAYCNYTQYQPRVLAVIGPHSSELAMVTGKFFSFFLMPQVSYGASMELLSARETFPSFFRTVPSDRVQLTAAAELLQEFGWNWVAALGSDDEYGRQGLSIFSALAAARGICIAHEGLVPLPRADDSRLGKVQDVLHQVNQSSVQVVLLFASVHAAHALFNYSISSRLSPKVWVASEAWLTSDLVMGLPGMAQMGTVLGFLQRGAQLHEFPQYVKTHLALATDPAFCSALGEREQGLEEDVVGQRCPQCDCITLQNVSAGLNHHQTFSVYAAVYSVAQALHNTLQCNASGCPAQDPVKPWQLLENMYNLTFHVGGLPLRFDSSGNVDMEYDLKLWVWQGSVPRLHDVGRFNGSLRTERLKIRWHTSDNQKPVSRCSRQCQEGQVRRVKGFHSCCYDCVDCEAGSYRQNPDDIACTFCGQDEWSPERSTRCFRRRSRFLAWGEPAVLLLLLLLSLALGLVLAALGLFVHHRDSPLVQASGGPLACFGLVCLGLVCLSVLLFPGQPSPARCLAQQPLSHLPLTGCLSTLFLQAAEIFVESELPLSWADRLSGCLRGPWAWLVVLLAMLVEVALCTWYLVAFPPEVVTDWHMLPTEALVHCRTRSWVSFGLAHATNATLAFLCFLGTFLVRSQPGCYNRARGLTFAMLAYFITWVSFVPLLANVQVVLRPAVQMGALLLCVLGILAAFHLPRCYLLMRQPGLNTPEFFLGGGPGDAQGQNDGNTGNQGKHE
Kind of experiment: in vitro cell-based assay, cells expressing the T1R umami taste receptor; enhancement of MSG. The following applies: for MSG Enh. Ratio: MSG enhancement ratio at a particular concentration (concentration not given); for EC50: cells that express the T1R umami taste receptor, dose-binding curves. As for the experimental part: Each of Compounds 101-145 was synthesized according to one of the general procedures set forth above in Examples 1 and Example 2. Thereafter, the compounds were tested in an in vitro cell-based assay having cells that express the T1R umami taste receptor. Dose-binding curves were recorded and the EC50 was determined for enhancement of MSG binding. Table 2 sets forth the calculated EC50 values for certain tested compounds as well as the MSG enhancement ratio at a particular concentration.

For the compound `COc1ccc(/C=C/C(=O)N[C@@H](CCC(=O)O)C(=O)O)cc1` [Compound 142, (E)-(3-(4-methoxyphenyl)acryloyl)-L-glutamic acid], the “MSG Enh. Ratio” value stood at 2.2 and the EC50 was more than 50 µM.

Take `Cc1ccc(C(=O)N[C@H](Cc2ccccc2)C(=O)O)cc1` [Compound 120, (4-methylbenzoyl)-D-phenylalanine]: the “MSG Enh. Ratio” value was determined as 1.3 and the EC50 is more than 50 µM.

`COc1ccc(/C=C/C(=O)N[C@@H](Cc2ccc(OC)cc2)C(=O)O)cc1` [Compound 140, (S,E)-3-(4-methoxyphenyl)-2-(3-(4-methoxyphenyl)acrylamido)propanoic acid]: the “MSG Enh. Ratio” value came to 1.8 and the EC50 is more than 50 µM.

With `CC(C)[C@H](NC(=O)/C=C/c1ccccc1)C(=O)O` [Compound 132, Cinnamoyl-L-valine], the “MSG Enh. Ratio” value is 1.7 and the EC50 is more than 50 µM.

Turning to `CC[C@H](C)[C@@H](CO)NC(=O)c1ccc(C(C)C)cc1` [Compound 103, N-((2S,3S)-1-hydroxy-3-methylpentan-2-yl)-4-isopropylbenzamide], the “MSG Enh. Ratio” value is 1.2 and the EC50 is more than 50 µM.

On to `CC[C@H](C)[C@@H](CO)NC(=O)c1cc(OC)cc(OC)c1` [Compound 109, N-((2S,3S)-1-hydroxy-3-methylpentan-2-yl)-3,5-dimethoxybenzamide], for which the “MSG Enh. Ratio” value came out at 1.1 and the EC50 was more than 50 µM.

Take `COc1ccc(/C=C/C(=O)N[C@H](CCC(=O)O)C(=O)O)cc1O` [Compound 144, (E)-(3-(3-hydroxy-4-methoxyphenyl)acryloyl)-D-glutamic acid]: the EC50 is more than 50 µM.

On to `COc1cccc(C(=O)N[C@H](CO)Cc2ccccc2)c1O` [Compound 113, (S)-2-hydroxy-N-(1-hydroxy-3-phenylpropan-2-yl)-3-methoxybenzamide], for which the “MSG Enh. Ratio” value worked out at 1.6 and the EC50 was more than 50 µM.

In the case of `CC(C)C[C@@H](CO)NC(=O)c1ccc2c(c1)OCO2` [Compound 112, (S)-N-(1-hydroxy-4-methylpentan-2-yl) benzo[d][1,3]dioxole-5-carboxamide], the “MSG Enh. Ratio” value amounted to 2.3 and the EC50 was more than 50 µM.

As for `COc1ccc(/C=C/C(=O)N[C@@H](CCC(=O)O)C(=O)O)cc1O` [Compound 143, (E)-(3-(3-hydroxy-4-methoxyphenyl)acryloyl)-L-glutamic acid], the “MSG Enh. Ratio” value is 1.0 and the EC50 is more than 50 µM.

As to `Cc1ccc(C(=O)N[C@H](CO)CC(C)C)cc1C` [Compound 104, (S)-N-(1-hydroxy-4-methylpentan-2-yl)-3,4-dimethylbenzamide], the “MSG Enh. Ratio” value is listed as 2.8 and the EC50 was more than 50 µM.

In the case of `COc1cc(OC)cc(C(=O)N[C@H](CO)CC(C)C)c1` [Compound 108, (S)-N-(1-hydroxy-4-methylpentan-2-yl)-3,5-dimethoxybenzamide], the “MSG Enh. Ratio” value is 1.3 and the EC50 is more than 50 µM.

Consider `COc1ccc(/C=C/C(=O)N[C@H](CO)Cc2ccccc2)cc1` [Compound 116, (S,E)-3-(4-methoxyphenyl)-N-(1-hydroxy-3-phenylpropan-2-yl)acrylamide], for which the concentration for a half-maximal effect (EC50) was determined as 11 µM. Besides, the “MSG Enh. Ratio @ [10 uM]” value (compound at 10 uM) is 6.9 @ [10 uM].

On to `Cc1ccc(C(=O)N[C@H](CC(C)C)C(=O)O)cc1C` [Compound 126, (3,4-dimethylbenzoyl)-D-leucine], for which the “MSG Enh. Ratio” value is 1.8 and the EC50 came to 27 µM.

On to `CC(C)/C=C/C(=O)N[C@@H](CCC(=O)O)C(=O)O` [Compound 145, (E)-(4-methylpent-2-enoyl)-L-glutamic acid], for which the “MSG Enh. Ratio” value is given as 1.0 and the EC50 was more than 50 µM.

With `COc1ccc(/C=C/C(=O)N[C@H](CC(C)C)C(=O)O)cc1` [Compound 137, (E)-(3-(4-methoxyphenyl)acryloyl)-D-leucine], the “MSG Enh. Ratio” value was 4.7 and the EC50 is 7.74 µM.

As for `COc1ccc(/C=C/C(=O)N[C@@H](Cc2ccc(OC)cc2)C(=O)O)cc1` [Compound 135, (S,E)-3-(4-methoxyphenyl)-2-(3-(4-methoxyphenyl)acrylamido)propanoic acid], the “MSG Enh. Ratio” value was 2.0 and the EC50 was more than 50 µM.

With `CC(C)C[C@@H](CO)NC(=O)c1ccc(C(C)C)cc1` [Compound 102, (S)-N-(1-hydroxy-4-methylpentan-2-yl)-4-isopropylbenzamide], the “MSG Enh. Ratio” value amounted to 1.4 and the EC50 was more than 50 µM.

With `CC[C@H](C)[C@H](NC(=O)/C=C/c1ccc(OC)cc1)C(=O)O` [Compound 139, ((E)-3-(4-methoxyphenyl)acryloyl)-L-isoleucine], the “MSG Enh. Ratio” value was found to be 1.5 and the EC50 is more than 50 µM.

On to `CC(C)C[C@H](NC(=O)/C=C/c1ccccc1)C(=O)O` [Compound 133, Cinnamoyl-L-leucine], for which the “MSG Enh. Ratio” value is 1.1 and the EC50 is more than 50 µM.

`Cc1ccc(C(=O)N[C@H](Cc2ccccc2)C(=O)O)cc1C` [Compound 125, (3,4-dimethylbenzoyl)-D-phenylalanine]: the “MSG Enh. Ratio” value is recorded as 1.3 and the EC50 is more than 50 µM.

As to `Cc1ccc(C(=O)N[C@@H](CC(C)C)C(=O)O)cc1` [Compound 123, (4-methylbenzoyl)-L-leucine], the “MSG Enh. Ratio” value worked out at 1.2 and the EC50 is more than 50 µM.

As to `COc1ccc(/C=C/C(=O)N[C@H](CO)CC(C)C)cc1` [Compound 114, (S,E)-3-(4-methoxyphenyl)-N-(1-hydroxy-4-methylpentan-2-yl)acrylamide], the “MSG Enh. Ratio” value was determined as 1.7 and the EC50 was more than 50 µM.

Consider `COc1ccc(/C=C/C(=O)N[C@H](C(=O)O)C(C)C)cc1` [Compound 136, (E)-(3-(4-methoxyphenyl)acryloyl)-L-valine], for which the EC50 was more than 50 µM.

On to `CC[C@H](C)[C@@H](CO)NC(=O)c1ccc2c(c1)OCO2` [Compound 110, N-((2S,3S)-1-hydroxy-3-methylpentan-2-yl) benzo[d][1,3]dioxole-5-carboxamide], for which the “MSG Enh. Ratio” value is reported as 1.4 and the EC50 is more than 50 µM.

`O=C(O)CC[C@H](NC(=O)c1ccc2c(c1)OCO2)C(=O)O` [Compound 131, (benzo[d][1,3]dioxole-5-carbonyl)-L-glutamic acid]: the “MSG Enh. Ratio” value was determined as 1.2 and the EC50 is more than 50 µM.

With `COc1ccc(/C=C/C(=O)N[C@@H](CC(C)C)C(=O)O)cc1` [Compound 138, (E)-(3-(4-methoxyphenyl)acryloyl)-L-leucine], the “MSG Enh. Ratio” value came out at 1.0 and the 50% effective concentration (EC50) was more than 50 µM.

On to `Cc1ccc(C(=O)N[C@H](CO)Cc2ccccc2)cc1C` [Compound 105, (S)-N-(1-hydroxy-3-phenylpropan-2-yl)-3,4-dimethylbenzamide], for which the “MSG Enh. Ratio” value is reported as 3.4 and the EC50 is more than 50 µM.

Regarding `Cc1ccc(C(=O)N[C@H](C(=O)O)C(C)C)cc1C` [Compound 121, (3,4-dimethylbenzoyl)-L-valine], the “MSG Enh. Ratio” value turned out to be 1.1 and the EC50 was more than 50 µM.

For `O=C(O)CC[C@H](NC(=O)/C=C/c1ccccc1)C(=O)O` [Compound 134, Cinnamoyl-L-glutamate], the “MSG Enh. Ratio” value was found to be 1.2 and the EC50 was more than 50 µM.

As a reminder, the EC50 is the concentration that produces a half-maximal response.
